From patent publication US5273992A, “Method for reducing sickle erythrocyte dehydration and delaying the occurrence of erythrocyte sickling in-situ” (Beth Israel Hospital Assoc. Inc., priority 1992, dated 1993)
Values joined by “and” are separate entries in the source; they are usually repeats but may differ in a detail not shown here. Equal entries are not always repeated. “Also recorded” adds a separate entry of the source. Where two headings read alike, the source gives them in different places.

Tests used:
[1] = target: T1, Ca^2+-activated K+ channel (Gardos channel) of sickle erythrocytes (Homo sapiens, UniProt O15554); experiment: Ca^2+-activated ^86Rb influx in sickle (SS) erythrocytes; type: cell-based; details: medium 20 mM salt (low ionic strength); for IC50: Dixon plot analysis, read-out: Inhibition of ^86Rb influx, IC50
T1 construct: Blood was collected after obtaining informed consent from patients; endogenous in cells; host or cells: erythrocytes (SS) from patients homozygous for Hb S

[2] = target: T2, Ca^2+-activated K+ channel of SS cells (Homo sapiens, UniProt O15554); experiment: Displacement of ^125I-ChTX binding in sickle erythrocytes; details: for ^125I-ChTX displacement, % of total: 90 min
T2 construct: Blood was collected after obtaining informed consent from patients; endogenous in cells; host or cells: erythrocytes (SS) from patients homozygous for Hb S
Description: White cells were removed by passing 0.8 mL of packed red cells through a 5 ml syringe containing a mixture of equal parts of alfa-cellulose and microcrystalline cellulose as originally described by Beutler and West [J. Lab. Clin. Med. 88:328-333 (1976)]. Red cells were washed 3 times in binding medium containing 18 mM NaCl, 2 mM KCl, 10 mM tris-Cl, pH 8.0, 230 mM sucrose and 0.25% bovine serum albumin. A suspension was then made in the same medium at 15% Hct. […] Tubes containing cell suspension were gently rotated for 90 min at room temperature. At the end of the incubation, aliquots of 1 ml were pelleted by microfuge and washed 3 times at 4° C. with a solution containing 200 mM NaCl, 10 mM tris-Cl, pH 8.0. The washed red cell pellet was then lysed in 1 ml of 0.01% Acationox®, and counted in a gamma counter. Aliquots of binding medium were counted prior to addition of cells and at the end of the binding assay.
^125 I-ChTX is a specific ligand of the Ca^2 + activated K+ channel of human red cells. […] To examine the interaction between CLT and the Ca^2 +activated K+ channel of SS cells, the question whether CLT can displace ^125 I-ChTX (50 pM) bound to SS cells was tested.

[3] = target: T1, Ca^2+-activated K+ channel (Gardos channel) of sickle erythrocytes; experiment: Ca^2+-activated ^86Rb influx in sickle (SS) erythrocytes; type: cell-based
Description: Patients homozygous for Hb S disease were selected. Blood was collected after obtaining informed consent from patients followed in the Hematology Division Clinic at Brigham and Women's Hospital and in the Boston Comprehensive Sickle Cell Center at Boston City Hospital. None of the patients had been transfused in the preceding 120 days.
Other experiments were carried out in normal saline (140 mM NaCl, 2 mM KCl, 10 mM tris-HCl, pH 8.0). At the end of the incubation, triplicate samples of each cell suspension were spun at 3,000 g for 10 min. The supernatant was then removed and a smaller volume of medium containing A23187 (60 μM CaCl2, and ^86 Rb was added to achieve a final Hct of 4-5%. Aliquots of cell suspension were taken at specified times (1, 3, and 5 min) and spun through 0.8 ml of medium with 5 mM EGTA and a 0.4 ml cushion of butyl-phthalate. The resultant supernatant and the upper layer of oil were carefully removed, the tube contents frozen at -80° C. and the tube tip containing the cell pellet cut off and counted.

[4] = in vivo; cited from earlier work
[5] = tested on: SS cells (sickle erythrocytes); type: cell-based, human; details: for Inhibition of dehydration of SS cells (in words): 60 μmol A23187/L cells, 100 μM CaCl2; for Cell K content at end of incubation: SS cells, A23187 + Ca^2+, average of three experiments (control 279±20, Ca^2+ alone 84.9±24)
Description: Cells were incubated for 60 min at 37° C. in a medium containing 140 mM NaCl, 4 mM KCl, 100 μM CaCl2, 1 mM K-phosphate buffer, pH 7.40, 10 mM tris-MOPS, pH 7.40, at 1-2% Hct. A23187 was subsequently added to a final concentration of 60 μmol/l cells under stirring. At the specified time intervals, the cell suspension was diluted with an equal amount of medium containing 5 MM EGTA and 0.1% BSA. The red cells were then washed four times with the same medium at 37° C. This procedure allowed for chelation of extracellular Ca^2 + and removal of A23187. An aliquot of cells washed in this medium was used to measure the distributions of cell volume and hemoglobin concentration with the H2-Technicon blood analyzer, while the remaining cells were washed four times with choline washing solution (144 mM Choline Cl, 1 mM MgCl2, 10 mM tris-MOPS, pH 7.40 at 4° C.) for measurements of internal Na and K contents.
291-300; Ohnishi et al., Biochim Biophys. Acta 1010:199-203 (1989): Horruchi et al., Blood 71:46-51 (1988)]. However, the results are highly dependent on the protocol used for deoxygenation and reoxygenation of SS cells. We reasoned that the inhibitory effect of CLT and other antimycotics on the dehydration mediated by the Ca^2 +-activated K+ channel should be assessed under conditions of maximal activation of this pathway. If the inhibitor is effective in blocking dehydration in these conditions, it should be able to block dehydration due to transient activation of the channel as during sickling. Accordingly, cells were exposed to A23187 in the presence of 100 μM CaCl2 in a medium containing 140 mM NaCl, 4 mM KCI, at pH 7.40, with or without the transport inhibitors.
After removal of ionophore and chelation of Ca, cell volume and hemoglobin concentration were measured on a cell per cell basis with the Technicon H-2 blood analyzer. […] Distribution histograms for red cell volume and hemoglobin concentration are presented in the lower panel. Arbitrarily established gates (hemoglobin concentration<28 and >41 g/dL; cell volume<60 and>120 fL) are used to define hypo- and hyperchromic cells and micro- and macrocytic cells, respectively. The distribution in the control SS cells (incubated with A23187 in the presence of 1 mM EGTA) resembles a teardrop, with reticulocytes and cells with low HC and high MCV in the top side of middle and left quadrant, discocytes in the central quadrant, and dehydrated dense cells in the right side of the middle quadrant. SS cells exposed to A 23187 and Ca^2+ were markedly dehydrated, as shown by the shift of the hemoglobin concentration (HC) histogram to higher values and by the increased HC values (FIG. 4). […] Measurements of cell cation content at the end of the incubation support the view that these effects are due to inhibition of K loss. […]

[6] = tested on: Ca^2+ activated K+ channel of human red cells; details: normal red cells; 50 nM cold ChTX; cited from earlier work
[7] = tested on: AE1 (band 3) chloride/bichloride exchanger; experiment: ^35SO4 influx into AA erythrocytes (AE1 function); type: cell-based, human
Description: The protocol used by Schofield et al. [Nature 355:836-838 (1992)] was used to measure ^35 SO2- uptake in AA erythrocytes.
To determine if the inhibition of Ca^2 +-activated ^86 Rb flux was secondary to an inhibitory effect on the membrane Cl-permeability, the effect of the various compounds on the ^35 SO4 influx was assessed. This assay is a measure of function of the major transport system for red cells, the AE1 (band 3) chloride/bichloride exchanger.

[8] = target: Gardos channel of sickle erythrocytes (Homo sapiens, UniProt O15554); experiment: Membrane potential (Em) of SS cells with activated Gardos channel; type: cell-based
Chain of Gardos channel of sickle erythrocytes (O15554 whole entry): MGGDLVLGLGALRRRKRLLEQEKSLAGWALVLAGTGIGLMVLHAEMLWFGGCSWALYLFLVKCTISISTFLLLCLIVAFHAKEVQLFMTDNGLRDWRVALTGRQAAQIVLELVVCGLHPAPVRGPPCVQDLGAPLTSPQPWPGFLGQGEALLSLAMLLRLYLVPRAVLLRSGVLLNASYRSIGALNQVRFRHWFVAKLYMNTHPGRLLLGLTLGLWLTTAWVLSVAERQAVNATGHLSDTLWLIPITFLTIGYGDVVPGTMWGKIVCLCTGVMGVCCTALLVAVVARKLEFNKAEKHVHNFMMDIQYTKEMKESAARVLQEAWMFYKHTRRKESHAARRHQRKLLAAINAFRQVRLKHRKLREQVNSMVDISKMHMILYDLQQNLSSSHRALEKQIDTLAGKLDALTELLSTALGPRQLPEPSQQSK
Description: Measurements of the proton distribution ratio in unbuffered media in the presence of the proton ionophore CCCP allow estimation of the red cell membrane potential (Em). Erythrocytes were washed twice at room temperature with unbuffered medium of the desired composition and added with stirring to 5 ml of the same medium to a final Hct of 5%. All media contained 100 μM ouabain, 10 μM bumetanide, 10 μM DIDS, 10 μM methazolamide and 50 μM CCCP (50 mM stock solution in DMSO. The medium was maintained at 37° C., and pH was recorded for one min prior and 10 min following addition of the red cells. Inhibitors were added to the specified final concentration by appropriate dilution from 10 mM stocks. For internal pH measurements, 20 μl of 10% (v/v) Triton X-100 were added to the cell suspension in unbuffered medium under stirring, and the pH of the resultant lysate measured and assumed to equal pHi. Em was calculated from the equation [formula] [pHi --pHo ], as detailed in Halpern et al, Am. J. Physiol. 257:c986-c996 (1989).
When the Gardos channel is activated, the increased permeability for K+ shifts the membrane potential away from the equilibrium potential for Cl- (ECI) toward the equilibrium potential for K+(EK). This effect is magnified with the Cl-permeability is inhibited by DIDS.

[9] = SS erythrocytes, medium 20 mM salt
[10] = SS erythrocytes, medium 140 mM salt (normal saline)
[11] = Inhibition of ^86Rb influx, IC50
[12] = SS erythrocytes, medium 20 mM salt, read-out: ^125I-ChTX displacement, IC50
[13] = SS erythrocytes, medium 140 mM salt (normal saline), Dixon plot analysis, read-out: Inhibition of ^86Rb influx, IC50

OC(Cn1cncn1)(Cn1cncn1)c1ccc(F)cc1F [Fluconazole]
Inhibition of ^86Rb influx, % maximum [1]: 0% | ^125I-ChTX displacement, % of total [2, 9]: 19% | Inhibition of Ca^2+-activated ^86Rb influx / K+ transport (in words) ([3]; SS erythrocytes): non-active | Inhibition of Ca^2+-activated ^86Rb influx / K+ transport (in words) ([3]; SS erythrocytes, listed as fluconazole): no inhibition | Inhibition of ^86Rb influx, % maximum [3, 10]: 0%

CCS(=O)(=O)CCn1c([N+](=O)[O-])cnc1C [Tinidazole]
Inhibition of ^86Rb influx, % maximum [1]: 21% | Inhibition of ^86Rb influx at 10 μM (in words) ([3]; SS erythrocytes): only marginally | Inhibition of ^86Rb influx, % maximum [3, 10]: 3%

Clc1ccc(COC(Cn2ccnc2)c2ccc(Cl)cc2Cl)c(Cl)c1 (stereo not shown) [Miconazole]
IC50 [2]: 165 nM | ^125I-ChTX displacement, % of total ([2]; sickle erythrocytes): 57% | Inhibition of ^86Rb influx, % maximum [3]: 63% and 49% | IC50 [3, 11]: 110 nM and 100 nM | Marrow hyoplasia, share of the use cases [4]: 40%

CHARYBDOTOXIN
Inhibition of ^86Rb influx, % maximum [1]: 95.5% | IC50 [1]: 0.096 nM | ^125I-ChTX displacement, % of total [2, 9]: 74.5% | IC50 [2, 12]: 0.033 nM | Inhibition of ^86Rb influx, % maximum [3, 10]: 52% | IC50 [3, 13]: 0.36 nM | Inhibition of dehydration of SS cells (in words) ([5]; 10 μM CLT, 50 nM ChTX): partially inhibited dehydration | Cell K content at end of incubation ([5]; 50 nM ChTX): 192.8±39 mmol/Kg Hb | Total binding displaced by excess cold ChTX [6]: 60-70%

Cc1ncc([N+](=O)[O-])n1CC(O)CCl (stereo not shown) [Ornidazole]
Inhibition of ^86Rb influx, % maximum [1]: 11% | Inhibition of ^86Rb influx at 10 μM (in words) ([3]; SS erythrocytes): only marginally | Inhibition of ^86Rb influx, % maximum [3, 10]: 21%

Clc1ccc(COC(Cn2ccnc2)c2ccc(Cl)cc2Cl)cc1 (stereo not shown) [Econazole, 1-[2-[(4-chlorophenyl)methoxyl]-2-(2,14-dichlorophenyl)ethyl]-1H-imidacole]
IC50 [2]: 205 nM | ^125I-ChTX displacement, % of total ([2]; sickle erythrocytes): 37% | Inhibition of ^86Rb influx, % maximum [3]: 31% and 47% | IC50 [3, 11]: 270 nM and 575 nM

Clc1ccccc1C(c1ccccc1)(c1ccccc1)n1ccnc1 [Clotrimazole, 1-[(2-chlorophenyl)diplenylmethyl]-1H-imidazole]
^125I-ChTX displacement (in words) [2]: displaced ^125 I-ChTX in a dose-dependent manner | ^125I-ChTX displacement, % of total ([2]; sickle erythrocytes): 74.5% | Inhibition of Ca^2+-activated ^86Rb influx / K+ transport (in words) [3]: markedly inhibited | Inhibition of ^86Rb influx, % maximum [3]: 87% and 93% | Influx of the anion SO4 [7]: not affected | Effect on K+ permeability and membrane potential (Em) ([8]; SS cells, A23187 and 50 μM CaCl2): markedly reduced K+ permeability and shifted Em from EK | Inhibitory potency on membrane potential changes ([8]; low ionic strength vs normal saline, listed as CLT): higher in low ionic strength conditions than in normal saline | Inhibition of dehydration of SS cells (in words) ([5]; 10 μM CLT, 50 nM ChTX, listed as CLT): more pronounced than that by 50 nM ChTX; also recorded: substantially prevented dehydration; also recorded: markedly inhibited the dehydration of sickle cells | Cell K content at end of incubation ([5]; 10 μM CLT): 210±30 mmol/Kg Hb

Cc1ncc([N+](=O)[O-])n1CCO [Metronidazole, 2-methyl-5-nitroimidazole-1-ethanol]
Inhibition of ^86Rb influx, % maximum [1]: 28% | IC50 [1]: 850 nM | ^125I-ChTX displacement, % of total [2, 9]: 49% | IC50 [2, 12]: 580 nM | Inhibition of Ca^2+-activated ^86Rb influx / K+ transport (in words) ([3]; SS erythrocytes): partially inhibited | Sequence / rank of inhibitory potency on the Gardos pathway ([3]; SS erythrocytes): clotrimazole>miconazole>econazole>metronidazole | Inhibition of ^86Rb influx, % maximum [3, 10]: 36% | IC50 [3, 13]: 440 nM
